Reference: US5481013A, “Carboxylic acid derivatives” (Ciba-Geigy Corporation, priority 1992, dated 1996)

Legend:
Type in all cases: in vivo
[1] = tested on: Panonychus ulmi (OP- and carb.- resistant); assay: Activity against Panonychus ulmi (OP- and carb.- resistant); conditions: 336 h, 400 ppm spray on apple seedlings, evaluated after 14 days, read-out: percentage reduction in population (% activity)
Procedure: Apple seedlings are populated with adult females of Panonychus ulmi. After seven days, the infested plants are sprayed to drip point with an aqueous emulsion comprising 400 ppm of the test compound and grown in the greenhouse. The test is evaluated after 14 days. The percentage reduction in population (% activity) is determined by comparing the number of dead spider mites on the treated plants with those on the untreated plants. […] An activity of over 80% is shown, in particular, by compound Nos. 1.01, 2.01, 2.07, 2.08, 2.10, 2.12 to 2.16, 2.22, 2.23, 2.26, 3.01, 4.01, 4.02, 4.06, 5.01 to 5.03, 5.05, 5.06, 5.08, 5.10, 5.11, 5.15, 5.16 and 5.20 to 5.25.

Nephotettix cincticeps = assay: Activity against Nephotettix cincticeps (spray on rice plants); conditions: 504 h, 400 ppm spray on rice plants, larvae in stages 2 and 3, evaluated 21 days later, read-out: percentage reduction in population (% activity)
Procedure: Rice plants are treated with a spray mixture prepared with an aqueous emulsion and comprising 400 ppm of the active ingredient. After the spray coating has dried on, the rice plants are populated with leaf hopper larvae in stages 2 and 3. The test is evaluated 21 days later. The percentage reduction in population (% activity) is determined by comparing the number of surviving leaf hoppers on the treated plants with those on the untreated plants.

Dermanyssus gallinae = assay: Activity against Dermanyssus gallinae; conditions: 72 h, 10 ppm solution, mites in different development stages, after 3 days
Procedure: 2 to 3 ml of a solution comprising 10 ppm of active ingredient and approximately 200 mites in different development stages are placed into a glass container which is open at the top. The container is then sealed with a cottonwool ball, shaken for 10 minutes until the mites are wetted completely, and then briefly turned over so that the remaining test solution can be absorbed by the cottonwool. After 3 days, the mortality of the mites is determined by counting the dead individuals; it is given as a percentage.

Nilaparvata lugens [2] = assay: Activity against Nilaparvata lugens (spray on rice plants); conditions: 504 h, 400 ppm spray on rice plants, larvae in stages 2 and 3, evaluated after 21 days, read-out: percentage reduction in population (% activity)
Procedure: Rice plants are treated with a spray mixture prepared with an aqueous emulsion and comprising 400 ppm of the active ingredient. After the spray coating has dried on, the rice plants are populated with plant hopper larvae in stages 2 and 3. The test is evaluated after 21 days. The percentage reduction in population (% activity) is determined by comparing the number of surviving plant hoppers on the treated plants with the number of plant hoppers on the untreated plants. […] An activity of over 80% is shown, in particular, by compound Nos. 1.01, 2.01 to 2.03, 2.07, 2.08, 2.10 to 2.16, 2.20, 2.22, 2.23, 2.26, 3.01, 4.01 to 4.06, 4.20, 5.01 to 5.06, 5.08, 5.10 to 5.12, 5.15, 5.16 and 5.20 to 5.25.

adult Anthonomus grandis = assay: Activity against adult Anthonomus grandis; conditions: 72 h, 400 ppm spray on young cotton plants, adults, evaluated after 3 days, read-out: percentage reduction in population or in feeding damage (% activity)
Procedure: (§1) Young cotton plants are sprayed with a spray mixture prepared with an aqueous emulsion and comprising 400 ppm of the active ingredient. After the spray coating has dried on, the cotton plants are populated with 10 adult Anthonomus grandis and placed into a plastic container. The test is evaluated after 3 days. The percentage reduction in population, or the percentage reduction in feeding damage (% activity), is determined by comparing the number of dead beetles and the feeding damage on the treated plants with those on the untreated plants.

Tetranychus urticae = assay: Activity against Tetranychus urticae; conditions: 144 h, 400 ppm spray on young bean plants, mixed population, 6 days at 25° C, read-out: percentage reduction in population (% activity)
Procedure: Young bean plants are populated with a mixed population of Tetranychus urticae and, after 1 day, sprayed with a spray mixture prepared with an aqueous emulsion and comprising 400 ppm of the active ingredient. The plants are subsequently incubated for 6 days at 25° C and then evaluated. The percentage reduction in population (% activity) is determined by comparing the number of dead eggs, larvae and adults on the treated plants with those on the untreated ones.

Heliothis virescens = assay: Ovicidal/larvicidal activity on Heliothis virescens; conditions: 192 h, 400 ppm spray on eggs deposited on cotton, evaluated after 8 days, read-out: % reduction in population (hatching percentage of eggs and survival rate of caterpillars)
Procedure: Heliothis eggs which have been deposited on cotton are sprayed with a spray mixture prepared with an aqueous emulsion and comprising 400 ppm of the active ingredient. After 8 days, the hatching percentage of the eggs and the survival rate of the caterpillars are evaluated by comparing them with untreated control batches (% reduction in population).

Nilaparvata lugens [3] = assay: Systemic activity against Nilaparvata lugens; conditions: 144 h, pots with rice plants in 400 ppm aqueous emulsion solution, larvae in stages 2 and 3, evaluated 6 days later, read-out: percentage reduction in population (% activity)
Procedure: Pots containing rice plants are placed into an aqueous emulsion solution comprising 400 ppm of the active ingredient. The rice plants are subsequently populated with larvae in stages 2 and 3. The test is evaluated 6 days later. The percentage reduction in population (% activity) is determined by comparing the numbers of plant hoppers on the treated plants with those on the untreated plants.

Ctenocephalides felis = assay: Activity against Ctenocephalides felis; conditions: 504 h, 100 ppm in flea larvae nutrient medium, flea eggs, checked after 21 days
Procedure: 20 to 25 flea eggs are placed into a horizontally positioned 50 ml tissue culture flask into which 15 g of flea larvae nutrient medium comprising 100 ppm of the active ingredient to be tested have previously been introduced. The test flasks are incubated in an incubator at 26° to 27° C. and an atmospheric humidity of 60-70%. After 21 days, the flasks are checked for the presence of adult fleas, unhatched pupae and larvae.

[4] = tested on: Heliothis virescens caterpillars; assay: Activity against Heliothis virescens caterpillars; conditions: 144 h, 400 ppm spray on young soybean plants, first larval stage, evaluated after 6 days, read-out: percentage reduction in population or in feeding damage (% activity)
Procedure: as §1, with “soybean” for “cotton”, “Heliothis virescens in the first larval stage” for “adult Anthonomus grandis”, “6” for “3”, “caterpillars” for “beetles”

Bemisia tabaci = assay: Activity against Bemisia tabaci; conditions: 336 h, 400 ppm spray on dwarf bean plants with nymphs, evaluated 14 days after application, read-out: activity (hatching percentages vs untreated control)
Procedure: Dwarf bean plants are placed into gauze cages and populated with adult Bemisia tabaci specimens (white fly). After oviposition has taken place, all adults are removed and, 10 days later, the plants with the nymphs located thereon are treated with a spray mixture of the active ingredients to be tested (concentration 400 ppm), which has been prepared with an aqueous emulsion. The test is evaluated for hatching percentages 14 days after the active ingredient has been applied by comparison with the untreated control batches. […] An activity of over 80% is shown, in particular, by compound Nos. 1.01, 2.01 to 2.08, 2.10 to 2.16, 2.22, 2.23, 3.01, 4.01, 4.02, 4.05, 4.06, 5.02, 5.03, 5.06 to 5.08, 5.10, 5.11, 5.20, 5.21 and 6.09.

O=C(CCCC=C(F)F)OCCOc1ccc(Oc2ccccc2)cc1 [Compound 2.01]
activity at 400 ppm [1]: > 80% | activity at 400 ppm (Nephotettix cincticeps): > 80%

O=C(CCCC=C(F)F)OCCOc1ccc(Sc2ccccc2)cc1 [Compound 2.02]
activity at 400 ppm (Nephotettix cincticeps): > 80%

O=C(CCCC=C(F)F)OCCOc1ccc(Oc2ccccn2)cc1 [Compound 2.03]
activity at 400 ppm (Nephotettix cincticeps): > 80%

CC(COC(=O)CCCC=C(F)F)Oc1ccc(Oc2ccccc2)cc1 (stereo not drawn) [Compound 2.06]
activity at 400 ppm (Nephotettix cincticeps): > 80% | mortality at 10 ppm (Dermanyssus gallinae): > 80%

O=C(CCCC=C(F)F)OCCOc1ccc(OCc2ccc(F)cc2)cc1 [Compound 2.07]
activity at 400 ppm (Nilaparvata lugens [2]): > 80% | activity at 400 ppm [1]: > 80% | activity at 400 ppm (Nephotettix cincticeps): > 80% | activity at 400 ppm (adult Anthonomus grandis): > 80%

O=C(CCCC=C(F)F)OCCOc1ccc(OCc2ccc(Cl)cc2)cc1 [Compound 2.08]
activity at 400 ppm (Nilaparvata lugens [2]): > 80% | activity at 400 ppm [1]: > 80% | activity at 400 ppm (adult Anthonomus grandis): > 80%

N#Cc1ccc(COc2ccc(OCCOC(=O)CCCC=C(F)F)cc2)cc1 [Compound 2.10]
activity at 400 ppm [1]: > 80% | activity at 400 ppm (Tetranychus urticae): > 80%

CC(OC(=O)CCCC=C(F)F)C(C)Oc1ccc(Oc2ccccc2)cc1 (stereo not drawn) [Compound 2.13]
mortality at 10 ppm (Dermanyssus gallinae): > 80%

O=C(CCCC=C(F)F)OCCOc1ccc(OCc2cccc([N+](=O)[O-])c2)cc1 [Compound 2.15]
pest or weed control at 400 ppm (Heliothis virescens): > 80%

Cc1ccc(COc2ccc(OCCOC(=O)CCCC=C(F)F)cc2)cc1C [Compound 2.16]
pest or weed control at 400 ppm (Heliothis virescens): > 80%

O=C(CCCC=C(F)F)NCCOc1ccc(Oc2ccccc2)cc1 [Compound 2.20]
activity at 400 ppm (Nilaparvata lugens [2]): > 80% | activity at 400 ppm (Nilaparvata lugens [3]): > 80%

CC(C)(C)c1ccc(COc2ccc(OCCOC(=O)CCCC=C(F)F)cc2)cc1 [Compound 2.26]
activity at 400 ppm (Nilaparvata lugens [2]): > 80% | pest or weed control at 100 ppm (Ctenocephalides felis): > 80% | activity at 400 ppm (Nilaparvata lugens [3]): > 80% | activity at 400 ppm [1]: > 80% | activity at 400 ppm (Nephotettix cincticeps): > 80% | activity at 400 ppm (Tetranychus urticae): > 80% | activity at 400 ppm [4]: > 80% | pest or weed control at 400 ppm (Heliothis virescens): > 80%

O=C(CCCCCCCC=C(F)F)OCCOc1ccc(Oc2ccccn2)cc1 [Compound 4.03]
pest or weed control at 100 ppm (Ctenocephalides felis): > 80%

Cc1nsc(Oc2ccc(OCCOC(=O)CCCCCCCC=C(F)F)cc2)n1 [Compound 4.04]
pest or weed control at 100 ppm (Ctenocephalides felis): > 80% | mortality at 10 ppm (Dermanyssus gallinae): > 80%

O=C(CCCCCCCC=C(F)F)OCCOc1ccc(OCc2ccccc2)cc1 [Compound 4.05]
activity at 400 ppm (Nephotettix cincticeps): > 80% | pest or weed control at 400 ppm (Bemisia tabaci): > 80% | activity at 400 ppm [4]: > 80% | mortality at 10 ppm (Dermanyssus gallinae): > 80%

O=C(CCCCCCCC=C(F)F)NCCOc1ccc(Oc2ccccc2)cc1 [Compound 4.20]
activity at 400 ppm (Nilaparvata lugens [2]): > 80% | activity at 400 ppm (Nilaparvata lugens [3]): > 80% | activity at 400 ppm (Tetranychus urticae): > 80% | activity at 400 ppm [4]: > 80% | pest or weed control at 400 ppm (Heliothis virescens): > 80%

O=C(CCCCCCCCCC=C(F)F)OCCOc1ccc(Oc2ccccn2)cc1 [Compound 5.03]
pest or weed control at 400 ppm (Bemisia tabaci): > 80%

CC(COC(=O)CCCCCCCCCC=C(F)F)Oc1ccc(Oc2ccccc2)cc1 (stereo not drawn) [Compound 5.06]
activity at 400 ppm [1]: > 80%

O=C(CCCCCCCCCC=C(F)F)OCCOc1ccc(OCc2ccc(Cl)cc2)cc1 [Compound 5.08]
activity at 400 ppm (Nilaparvata lugens [2]): > 80% | pest or weed control at 100 ppm (Ctenocephalides felis): > 80% | activity at 400 ppm [1]: > 80% | activity at 400 ppm (Tetranychus urticae): > 80%

N#Cc1ccc(COc2ccc(OCCOC(=O)CCCCCCCCCC=C(F)F)cc2)cc1 [Compound 5.10]
activity at 400 ppm [1]: > 80% | pest or weed control at 400 ppm (Bemisia tabaci): > 80% | activity at 400 ppm (adult Anthonomus grandis): > 80%

Cc1ccc(COc2ccc(OCCOC(=O)CCCCCCCCCC=C(F)F)cc2)cc1 [Compound 5.11]
activity at 400 ppm [1]: > 80% | pest or weed control at 400 ppm (Bemisia tabaci): > 80%

O=C(CCCCCCCCCC=C(F)F)OCCOc1ccc(OCc2cccc([N+](=O)[O-])c2)cc1 [Compound 5.15]
activity at 400 ppm (Nilaparvata lugens [2]): > 80% | activity at 400 ppm (Nilaparvata lugens [3]): > 80% | activity at 400 ppm [1]: > 80% | activity at 400 ppm (Nephotettix cincticeps): > 80% | activity at 400 ppm (Tetranychus urticae): > 80% | activity at 400 ppm [4]: > 80% | pest or weed control at 400 ppm (Heliothis virescens): > 80%

Cc1ccc(COc2ccc(OCCOC(=O)CCCCCCCCCC=C(F)F)cc2)cc1C [Compound 5.16]
activity at 400 ppm (Nilaparvata lugens [2]): > 80% | activity at 400 ppm (Nilaparvata lugens [3]): > 80% | activity at 400 ppm [1]: > 80% | activity at 400 ppm (Nephotettix cincticeps): > 80% | activity at 400 ppm (Tetranychus urticae): > 80% | activity at 400 ppm [4]: > 80% | activity at 400 ppm (adult Anthonomus grandis): > 80% | pest or weed control at 400 ppm (Heliothis virescens): > 80%

O=C(CCCCCCCCCC=C(F)F)OCCOc1ccc(OCc2cccc(Cl)c2)cc1 [Compound 5.20]
activity at 400 ppm (Nephotettix cincticeps): > 80% | pest or weed control at 400 ppm (Bemisia tabaci): > 80%

O=C(CCCCCCCCCC=C(F)F)NCCOc1ccc(OCc2ccc(C(F)(F)F)cn2)cc1 [Compound 5.21]
pest or weed control at 400 ppm (Bemisia tabaci): > 80% | mortality at 10 ppm (Dermanyssus gallinae): > 80%

O=C(CCCCCCCCCC=C(F)F)OCCOc1ccc(OCc2ncc(C(F)(F)F)cc2Cl)cc1 [Compound 5.22]
activity at 400 ppm (Nephotettix cincticeps): > 80%

CC(COC(=O)CCCCCCCCCC=C(F)F)Oc1ccc(Sc2ccccc2)cc1 (stereo not drawn) [Compound 5.25]
activity at 400 ppm (Nephotettix cincticeps): > 80% | activity at 400 ppm [4]: > 80%

CC(CCCCCCCCCC(=O)OCCOc1ccc(Oc2ccccc2)cc1)=C(F)Cl [Compound 6.09]
pest or weed control at 400 ppm (Bemisia tabaci): > 80% | pest or weed control at 400 ppm (Heliothis virescens): > 80%
